The source of these data is PubChem BioAssay (NCI).

Among the test systems are NCI-H522 lung; NCI-H23 lung; NCI-H460 lung; 786-0 renal; M14 melanoma; OVCAR-3 ovarian; HCT-15 colon; SK-MEL-2 melanoma; SR leukemia.
Holding throughout (test): NCI tumour cell line growth inhibition, 48 h

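Cells were grown in 96-well plates and exposed to each compound for 48 hours at five concentrations; endpoints were interpolated linearly between bracketing concentrations, or set to the highest concentration if not reached. GI50 is the concentration that inhibits growth by half. TGI: total growth inhibition.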 Some results are limits rather than exact numbers.

As for `CSc1nnc(COc2ccc(Cl)cc2)o1`, the TGI in the test with NCI-H522 lung, in the test with NCI-H23 lung, in the test with NCI-H460 lung, in the test with 786-0 renal, with M14 melanoma and in the test on OVCAR-3 ovarian was more than 100 µM throughout. For the same molecule, the TGI in the test on HCT-15 colon was more than 100 µM.
For the molecule `Cc1nc(C(N)=S)sc1C(=O)/C=C/c1c(O)ccc2ccccc12`, the TGI is more than 63 µM in the test with NCI-H522 lung; more than 100 µM with NCI-H23 lung; more than 100 µM in the test with SK-MEL-2 melanoma; more than 100 µM in the test on NCI-H460 lung; more than 100 µM in the test with 786-0 renal; more than 100 µM with M14 melanoma. Further, the results for the TGI in the test on OVCAR-3 ovarian and with HCT-15 colon were more than 84.3 µM and more than 100 µM, respectively.
In the case of `N/N=C1\C(=O)N(CCc2ccccc2)C(=O)C1C(=O)NCCc1ccccc1` (stereo unspecified), the TGI with NCI-H522 lung, with NCI-H23 lung, in the test on SK-MEL-2 melanoma, with 786-0 renal, in the test with M14 melanoma and in the test on OVCAR-3 ovarian was more than 100 µM each time. Besides, the TGI in the test on SR leukemia was more than 100 µM.
On to `Cc1c(C(=O)O)oc2ccc([N+](=O)[O-])cc12`, for which the TGI in the test with NCI-H522 lung, with NCI-H23 lung, with SK-MEL-2 melanoma, in the test with NCI-H460 lung, in the test on 786-0 renal and with M14 melanoma was more than 100 µM in each case. For the same molecule, the TGI in the test with OVCAR-3 ovarian and in the test with HCT-15 colon was more than 100 µM each time.
As to `CC(C)(Oc1ccc(/C=C/C(=O)c2ccc(Cl)cc2)cc1)C(=O)Nc1c(Cl)cccc1Cl`, the TGI was 40.9 µM in the test with NCI-H23 lung; more than 100 µM with SK-MEL-2 melanoma; 98.3 µM in the test with NCI-H460 lung; 45.8 µM with 786-0 renal; 36.7 µM in the test with M14 melanoma; 44.8 µM in the test with OVCAR-3 ovarian. Besides, the TGI was 29.3 µM in the test on HCT-15 colon and more than 100 µM with SR leukemia.
As to `CCOC(=O)c1cc2c3c(c(O)c(OC)c2s1)N(C(=O)c1cc2c4c(c(O)c(OC)c2s1)N(C(C)=O)CC4)CC3`, the TGI in the test with NCI-H522 lung, with NCI-H23 lung, in the test on NCI-H460 lung, in the test on 786-0 renal, in the test on M14 melanoma and with OVCAR-3 ovarian was more than 100 µM in each case.
On to `Nc1ncnc2c1ncn2CC(O)CO` (stereo unspecified), for which the TGI with NCI-H522 lung, in the test on NCI-H23 lung, in the test on SK-MEL-2 melanoma, in the test with NCI-H460 lung, with 786-0 renal and in the test with M14 melanoma was more than 100 µM throughout. Besides, the TGI with OVCAR-3 ovarian and in the test with HCT-15 colon was more than 100 µM each time.
Turning to `COc1ccc(C(=O)NCCN(C)C)c2nc3ccccc3nc12`, the TGI in the test with NCI-H522 lung was more than 100 µM; with NCI-H23 lung it was 17.9 µM; in the test on SK-MEL-2 melanoma, 11.8 µM; with 786-0 renal it was more than 59.9 µM; with M14 melanoma, more than 34.5 µM; with OVCAR-3 ovarian it was more than 29.3 µM. In addition, the TGI in the test with HCT-15 colon was 24.4 µM; in the test with SR leukemia, 23.3 µM.
As for `C=C(C)C1C/C=C(/C)CCCC2(CCC3=C(CC(C(=C)C)C/C=C(/C)CCC3)O2)C(=O)C1` (stereo unspecified), the TGI with NCI-H522 lung, in the test with NCI-H23 lung, with SK-MEL-2 melanoma, with NCI-H460 lung, in the test with 786-0 renal and in the test with M14 melanoma was more than 100 µM each time. Moreover, the TGI in the test with HCT-15 colon and in the test with SR leukemia was more than 100 µM in each case.
Consider `CCOC(=O)NC(=O)c1cn(CCN2CCN(C(=O)CCCCCCCCCCC(=O)N3CCN(CCn4cc(C(=O)NC(=O)OCC)c(=O)[nH]c4=O)CC3)CC2)c(=O)[nH]c1=O`, for which the TGI with NCI-H522 lung, with NCI-H23 lung, in the test with 786-0 renal, in the test with M14 melanoma, in the test with OVCAR-3 ovarian and in the test on SR leukemia was more than 100 µM throughout.
For the molecule `COC(=O)C1(C(=O)OC)CC(=O)c2cc3c(cc2-c2c(cc(OC)c(OC)c2OC)C1)OCO3`, the TGI in the test on NCI-H522 lung, in the test with NCI-H23 lung, in the test with SK-MEL-2 melanoma, in the test on NCI-H460 lung, in the test with 786-0 renal and in the test on OVCAR-3 ovarian was more than 211 µM each time. Besides, the TGI in the test with HCT-15 colon and in the test with SR leukemia was more than 211 µM each time.
`O=c1oc2ccccc2[n+]([O-])c1-c1ccccc1`: the TGI in the test with NCI-H522 lung, in the test on NCI-H23 lung, in the test with SK-MEL-2 melanoma, with NCI-H460 lung, with 786-0 renal and in the test with M14 melanoma was more than 100 µM each time. Also, the TGI in the test on OVCAR-3 ovarian and in the test on HCT-15 colon was more than 100 µM each time.
As for `O=C(N/N=C/c1cccc(F)c1)c1ccncc1`, the TGI in the test with NCI-H23 lung, with SK-MEL-2 melanoma, in the test on NCI-H460 lung, in the test with 786-0 renal, in the test on M14 melanoma and in the test on HCT-15 colon was more than 100 µM each time. Besides, the TGI with SR leukemia is more than 100 µM.
`CC1(C)CC2C(=O)c3ccccc3NC2c2ccccc21` (stereo unspecified): the TGI in the test on NCI-H522 lung was 4.49 µM; in the test on NCI-H23 lung, more than 64.8 µM; in the test on NCI-H460 lung, more than 100 µM; in the test on 786-0 renal, more than 100 µM; in the test on M14 melanoma, more than 100 µM; with OVCAR-3 ovarian it was more than 100 µM. Moreover, the TGI in the test on HCT-15 colon and in the test on SR leukemia was more than 100 µM in each case.
Consider `Cn1c2c(c3ccccc31)CCN(CCN1CCN(c3cccc(Cl)c3)CC1)C2=O`, for which the TGI in the test with NCI-H522 lung, with NCI-H23 lung, in the test with 786-0 renal, with M14 melanoma and in the test with HCT-15 colon was more than 100 µM each time.
For `Cc1ccccc1C(=O)N1CCN(C(=O)c2ccccc2C)CC1`, the TGI with NCI-H522 lung, with NCI-H23 lung, with NCI-H460 lung, in the test with 786-0 renal, in the test with M14 melanoma and in the test on OVCAR-3 ovarian was more than 100 µM each time. Also, the TGI with HCT-15 colon and with SR leukemia was more than 100 µM in each case.
On to `NC(=S)NN/C=C(\C=Nc1ccccc1)[N+](=O)[O-]`, for which the TGI in the test on NCI-H522 lung, in the test on NCI-H23 lung, with SK-MEL-2 melanoma, in the test on 786-0 renal, in the test with M14 melanoma and with OVCAR-3 ovarian was more than 100 µM each time. The TGI in the test on HCT-15 colon is more than 100 µM.
For the molecule `C/C(=N\NC(=O)CC#N)c1c(O)cc(C)oc1=O`, the TGI with NCI-H23 lung, in the test on SK-MEL-2 melanoma, in the test on NCI-H460 lung, in the test on 786-0 renal, in the test on M14 melanoma and in the test with HCT-15 colon was more than 100 µM in each case. Further, the TGI in the test on SR leukemia was more than 100 µM.
With `CSC(=NCCc1c[nH]c2ccccc12)NC#N`, the TGI in the test with NCI-H23 lung, in the test with NCI-H460 lung, with 786-0 renal, in the test with M14 melanoma, with OVCAR-3 ovarian and with HCT-15 colon was more than 100 µM throughout. Besides, the TGI in the test with SR leukemia is more than 100 µM.
Turning to `CC(C)(C)C(=O)[CH-]C(=O)C(C)(C)C.CC(C)(C)C(=O)[CH-]C(=O)C(C)(C)C.CN(C)c1ccc([O-])cc1.CN(C)c1ccc([O-])cc1.[Ti+4]`, the GI50 was more than 100 µM with NCI-H522 lung; more than 100 µM with NCI-H23 lung; more than 100 µM in the test with SK-MEL-2 melanoma; more than 100 µM with NCI-H460 lung; 68.2 µM with 786-0 renal; 60.8 µM in the test on M14 melanoma. The GI50 was 96.2 µM in the test on OVCAR-3 ovarian and more than 100 µM in the test on HCT-15 colon. Besides, the TGI with NCI-H522 lung, in the test with NCI-H23 lung, with SK-MEL-2 melanoma, in the test on NCI-H460 lung, with 786-0 renal and in the test with M14 melanoma was more than 100 µM throughout. For the same molecule, the TGI with OVCAR-3 ovarian and in the test with HCT-15 colon was more than 100 µM throughout.
Take `COc1cc2c(cc1OC)C(C(=O)c1cccc(OC)c1OC)C(=O)N(C)CC2` (stereo unspecified): the TGI with NCI-H522 lung, in the test with NCI-H23 lung, in the test on SK-MEL-2 melanoma, in the test with NCI-H460 lung, with 786-0 renal and in the test with M14 melanoma was more than 100 µM in each case. The TGI in the test with OVCAR-3 ovarian and with HCT-15 colon was more than 100 µM in each case.
Consider `CSC(=S)N/N=C/c1nccc2ccccc12`, for which the TGI came out at 1.63 µM in the test with NCI-H522 lung; 5.03 µM with NCI-H23 lung; 5.89 µM in the test with SK-MEL-2 melanoma; 6.12 µM in the test on NCI-H460 lung; 12.6 µM with 786-0 renal; 4.87 µM in the test with M14 melanoma. For the same molecule, the TGI in the test with HCT-15 colon was 40 µM; with SR leukemia, 18.8 µM.
For `CC(=O)N1CCC2(c3ccccc3N(C(C)=O)C2c2ccc(O)cc2)C1C(=O)O` (stereo unspecified), the TGI with NCI-H522 lung, with NCI-H23 lung, in the test with SK-MEL-2 melanoma, with 786-0 renal, with M14 melanoma and in the test on OVCAR-3 ovarian was more than 100 µM throughout. The TGI with SR leukemia is more than 100 µM.
With `O=c1c2cc(Br)ccc2nc(CCl)n1-c1ccc(O)c([N+](=O)[O-])c1`, the TGI was 35.7 µM in the test with NCI-H522 lung; 35.8 µM with NCI-H23 lung; 31.1 µM in the test with SK-MEL-2 melanoma; more than 100 µM in the test with NCI-H460 lung; 31.8 µM with 786-0 renal; 50.2 µM with M14 melanoma. In addition, the results for the TGI with OVCAR-3 ovarian and with HCT-15 colon were 33 µM and 41.2 µM, respectively.
